Measurements reported in US12403184B2, “Compositions and methods for treating neurodegenerative disroders” (priority 2018, dated 2025).
Where no end group is shown, it is not given here.

Key:
HdhQ7 and HdhQ111 cells = test: Mitochondrial respiratory activity (Seahorse analyzer); assay type: cell-based, mouse
Method: Mitochondrial respiration activity in HdhQ7 and HdhQ111 cells was analyzed using a Seahorse Bioscience XFp Extracellular Flux Analyzer. The cells were seeded in XFp […] microplates at 6,000 cells per well in 50 μl of growth medium. One hour prior to measuring oxygen consumption, the cell culture media was replaced with XF assay medium and maintained in a non-CO2 incubator for 1 h. The sensor cartridges were placed in the XFp Analyzer according to the manufacturer's instructions for the Mito Stress Test kit. In brief, mitochondrial function was determined by the sequential injection of oligomycin A (2.5 μg/mL), FCCP (1 μM), and antimycin A (4 μM). Following each experiment, the total cellular number of each well was determined using DAPI staining.

mtDNA = mtDNA content in plasma of YAC128 mice by qPCR; assay type: in vivo, mouse; settings: YAC128 mice at the age of 6 months
Method: For isolation of DNA from mouse plasma, the QIAamp DNA Blood Mini Kit (QIAGEN) was used. Briefly, 100-200 μl mouse plasma was subjected to total DNA extraction. Then the eluted DNA was diluted (1:5) to perform the qPCR experiment.

[1] = test system: striatum of R6/2 and YAC128 mice; test: Western blot of striatal proteins in treated HD mice; assay type: in vivo, mouse; settings: for TFAM protein level / mtCO2 protein level: striatal mitochondria
Method: (§1) Cells were washed with cold phosphate-buffered saline (PBS) and incubated on ice in mitochondrial lysis buffer (250 mM sucrose, 20 mM HEPES-NaOH, pH 7.5, 10 mM KCl, 1.5 mM MgCl2, 1 mM EDTA, 1 mM EGTA, protease inhibitor cocktail, and phosphatase inhibitor cocktail) for 30 min. The cells were scraped and then disrupted 15 times by repeated aspiration through a 25-gauge needle. Mouse brains were minced and homogenized in mitochondrial lysis buffer to release mitochondria. The homogenates were spun at 800×g for 10 min at 4° C., and the resulting supernatants were spun at 12,000×g for 20 min at 4° C. The pellets were washed with lysis buffer and spun at 12,000×g again for 20 min at 4° C. The final pellets were suspended in lysis buffer containing 1% Triton X-100 and were mitochondrial-rich lysate fractions. The mitochondrial protein voltage-dependent anion channel (VDAC) was used as a loading control.
(§2) Protein concentration was measured by protein assay dye reagents (Bio-rad). The protein was resuspended in Laemmli buffer, loaded on SDS-PAGE, and transferred onto nitrocellulose membranes. Membranes were probed with the indicated antibodies, followed by visualization with ECL. Representative blots have been cropped for presentation.
(§3) Systemic peptide treatment in HD mice. All randomization and peptide treatments were prepared by an experimenter not associated with behavioral and neuropathology analysis. Male R6/2 mice (Tg) and their age-matched wild-type littermates (Wt) (6-week-old) were implanted with a 28-day osmotic pump (Alzet, Cupertino CA, Model 2004) containing TAT control peptide or DA1 peptide, which delivered peptides at a rate of 1 mg/kg/day. Male YAC128 mice (Tg) and their age-matched wild-type littermates (WT) were treated with TAT control peptide or DA1 peptide (1 mg/kg/day) by Alzet osmotic pump starting from the age of 3 months. The pump was replaced once every month.

HD R6/2 mice = test: Striatal neuropathology in R6/2 mice (DARPP-32 immunohistochemistry, Golgi-Cox staining, striatum volume); assay type: in vivo, mouse
Method: Mice were deeply anesthetized and transcardially perfused with 4% paraformaldehyde in PBS. Brains were processed for paraffin embedment. Brain sections (10 μm, coronal) were used for immunohistochemical localization of DARPP-32 (1:500, Abcam) or ATAD3A (1:200, Genetex) using the IHC Select HRP/DAB kit (Millipore). Quantitation of DARPP-32 immunostaining was conducted using NIH image J software. The same image exposure times and threshold settings were used for sections from all treatment groups. An experimenter blinded to the experimental groups conducted the quantitation.
Coronal sections (10 μm) spaced 200 μm apart throughout the striatum will be stained with anti-NeuN (Sigma, MAB377, 1:200 dilution) antibody followed by secondary antibodies and detection with diaminobenzidine (DAB, Pierce). The perimeter of the striatum will be traced in each of the serial sections using a ×2 objective. For the volume estimation, consecutive sections (an average of 10-15 sections/animal) will be visualized and the perimeter of the striatum will be outlined. The striatal volume will be estimated by multiplying the sum of all the sectional areas (mm2) by the distance between successive sections (200 μm).
Dendrite morphology of medium spiny neurons in wildtype and HD R6/2 mice was analyzed by Golgi-Cox staining using Novaultra Golgi-Cox Stain Kit (IHCWorld, SKU IW-3023). Briefly, mice were deeply anesthetized and transcardially perfused with 4% paraformaldehyde in PBS. After thoroughly washing with PBS overnight, mouse brains were immersed in the Golgi-Cox solution in dark at room temperature, then replaced with fresh Golgi-Cox Solution after 2 days of immersion and continued the impregnation at room temperature in dark for 14 days following the manufactory instruction. After washing with PBS for 2 days, serial coronal sections of 200 μm thick were cut on Vibratome Series 1000 Sectioning System. […] Total dendritic length per neuron was measured using NIH Image J plug-in simple neurite tracer.

[2] = test system: Drp1 with its mitochondrial adaptors Mff, Fis1 and MIEF1; test: Immunoprecipitation of Drp1 with mitochondrial adaptors after crosslinking; assay type: cell-based, mouse; settings: HdhQ111 cells, 1 μM/day for 4 days
Method: For Drp1-Mff or Drp-MiD51 (MIEF1) interaction, the cells were cross-linked by […] for 10 min at r.t., then […] in PBS was added to quench the redundant DSP activity. For Drp1-Fis1 interaction, the cells were cross-linked by 1% FA for 20 min at r.t., then added […] in PBS to quench the redundant activity. The cells were washed with PBS, sonicated, and lysed with 1% Triton X-100 total lysis buffer.

Drp1 = Drp1 mitochondrial level and Drp1 oligomerization in striatum of treated HD mice; assay type: in vivo, mouse; settings: for Drp1 translocation to the mitochondria: 1 mg/kg/day
Method: as §1, §2, §3

[3] = YAC128 mice, 12 months old, striatal extracts

## YGRKKRRQRRRGGEDKRKT-NH2 [DA1, YGRKKRRQRRR-GG-EDKRKT-NH2]
HdhQ7 and HdhQ111 cells; HdhQ7 cells
  mitochondrial respiratory activity: minor effects
HdhQ7 and HdhQ111 cells; HdhQ111 cells
  ATP production: improved
  maximal respiratory capacity: improved
  spare respiratory capacity: improved
HdhQ7 and HdhQ111 cells; HdhQ111 cells, 1 μM/day for 4 days
  mitochondrial respiratory defects: attenuated
mtDNA
  increase of plasma mtDNA content: abolished
[1]; R6/2 mice, 12 weeks old
  TFAM protein level: corrected
  mtCO2 protein level: corrected
[1]; YAC128 and wildtype mice, 6 months old, striatal mitochondrial lysates
  nuclear-encoded mitochondrial proteins: no observable effects
[1]; YAC128 mice, 6 months old
  TFAM protein level: corrected
  mtCO2 protein level: corrected
[1]; [3]
  DARPP-32 protein level: increased
  PSD95 protein level: increased
[1]; YAC128 mouse striatum, until 12 months of age
  PGC1α protein levels: increased
HD R6/2 mice
  dendritic morphology of MSN (Golgi-Cox staining): improved
  striatum volume: increased
HD R6/2 mice; 12 weeks old
  area occupied by DARPP-32-immunostained cells in the striatum: increased
[2]
  interactions of Drp1 with its mitochondrial adaptors Mff, Fis1 and MIEF1: did not influence
Drp1; striatum of HD R6/2 mice
  Drp1 translocation to the mitochondria: abrogated
Drp1; striatum of HD R6/2 mice, 12 weeks old
  Drp1 polymerization: abrogated
Drp1; striatum of HD YAC128 mice
  Drp1 translocation to the mitochondria: abrogated
Drp1; striatum of HD YAC128 mice, 12 months old
  Drp1 polymerization: abrogated
